The results in this text go back to ChEMBL document CHEMBL2074530, “Interaction of ivermectin with multidrug resistance proteins (MRP1, 2 and 3)” (Chem Biol Interact, 2006).

The data set concerns the target Multidrug resistance-associated protein 1 (Homo sapiens, UniProt P33527). Briefly: TP_TRANSPORTER: inhibition of BODIPY-ivermectin transport in HL60-MRP1 cells. In kind it is functional, cell-based.

Chain of Multidrug resistance-associated protein 1 (P33527 whole entry): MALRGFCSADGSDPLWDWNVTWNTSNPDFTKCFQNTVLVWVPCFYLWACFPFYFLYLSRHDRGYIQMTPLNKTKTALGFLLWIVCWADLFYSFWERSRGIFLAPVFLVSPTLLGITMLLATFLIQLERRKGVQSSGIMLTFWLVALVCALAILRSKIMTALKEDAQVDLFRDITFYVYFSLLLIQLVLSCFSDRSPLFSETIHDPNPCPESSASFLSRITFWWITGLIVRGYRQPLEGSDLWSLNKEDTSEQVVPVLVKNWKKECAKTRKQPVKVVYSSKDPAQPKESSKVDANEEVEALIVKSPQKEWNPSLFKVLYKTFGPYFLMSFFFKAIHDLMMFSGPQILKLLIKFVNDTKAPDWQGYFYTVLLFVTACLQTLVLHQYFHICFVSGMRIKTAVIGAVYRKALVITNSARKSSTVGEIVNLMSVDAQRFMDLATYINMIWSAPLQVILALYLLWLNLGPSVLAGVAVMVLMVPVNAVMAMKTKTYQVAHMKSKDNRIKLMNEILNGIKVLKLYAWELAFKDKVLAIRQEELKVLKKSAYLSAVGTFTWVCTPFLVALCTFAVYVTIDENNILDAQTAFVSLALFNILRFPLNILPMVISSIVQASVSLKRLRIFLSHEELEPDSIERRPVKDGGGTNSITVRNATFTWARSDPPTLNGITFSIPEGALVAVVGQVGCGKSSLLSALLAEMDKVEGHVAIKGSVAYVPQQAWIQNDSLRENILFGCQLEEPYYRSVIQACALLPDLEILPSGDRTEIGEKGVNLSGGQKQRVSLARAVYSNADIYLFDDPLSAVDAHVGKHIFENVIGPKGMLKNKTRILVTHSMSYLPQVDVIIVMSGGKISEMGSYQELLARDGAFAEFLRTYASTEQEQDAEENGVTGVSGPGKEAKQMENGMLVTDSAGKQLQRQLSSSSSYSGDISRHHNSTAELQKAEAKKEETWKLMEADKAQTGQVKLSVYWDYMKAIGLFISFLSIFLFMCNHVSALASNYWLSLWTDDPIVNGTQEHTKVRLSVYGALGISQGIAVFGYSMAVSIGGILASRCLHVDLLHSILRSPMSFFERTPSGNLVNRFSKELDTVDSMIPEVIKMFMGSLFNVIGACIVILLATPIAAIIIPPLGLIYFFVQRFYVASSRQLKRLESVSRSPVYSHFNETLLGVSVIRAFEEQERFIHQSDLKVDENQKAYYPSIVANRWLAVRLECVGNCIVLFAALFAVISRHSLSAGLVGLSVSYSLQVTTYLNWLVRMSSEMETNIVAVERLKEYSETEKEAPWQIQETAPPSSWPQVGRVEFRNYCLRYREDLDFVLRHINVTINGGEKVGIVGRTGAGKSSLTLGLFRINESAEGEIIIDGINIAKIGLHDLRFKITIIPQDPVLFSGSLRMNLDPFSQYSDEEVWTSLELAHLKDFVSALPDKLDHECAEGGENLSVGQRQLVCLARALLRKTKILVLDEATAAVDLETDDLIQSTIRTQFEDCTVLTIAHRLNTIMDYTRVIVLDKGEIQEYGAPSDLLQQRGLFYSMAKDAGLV

Consider IVERMECTIN, for which the Activity entry was “inhibitor [+]”.
